Values joined by “and” are separate entries in the source; they are usually repeats but may differ in a detail not shown here. Identical values can stand only once.
Columns and labels:
trypsin = target: T1, trypsin (Bos taurus, UniProt P00760); assay: Trypsin inhibition assay (Boc-QAR-AMC cleavage); assay type: biochemical, bovine
T1 construct: purchased Sigma-Aldrich T1426; host or cells: bovine pancreas
T1 sequence (P00760 24-246): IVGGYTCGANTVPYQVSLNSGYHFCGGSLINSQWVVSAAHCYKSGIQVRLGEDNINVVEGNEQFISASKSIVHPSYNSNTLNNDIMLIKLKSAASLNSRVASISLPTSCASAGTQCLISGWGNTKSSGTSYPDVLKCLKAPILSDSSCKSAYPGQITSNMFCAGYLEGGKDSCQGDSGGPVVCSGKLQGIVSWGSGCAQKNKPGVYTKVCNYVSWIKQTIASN
Protocol: (§1) Analytical data are in accor dance with those reported in the literature12.
(§2) (+)-Pinanediol (1- am inobenzyl)boronate h ydrochloride 9g
(§3) A previousl y reported m ethod was used for the first step of the s ynthesis3.
(§4) Phenylm agnesium brom ide 0.7 M (3.1 m L, 2.15 mm ol, 1.2 equiv) was added dropwise at −78°C to a solution of (+)-pinanediol dichloromethyl boronate 24 (470 m g, 1.79 mmol, 1.0 equiv) in anh ydrous dieth yl ether (10 m L). Af ter 15 m in ZnCl2 1 M (1.8 m L, 1.8 mm ol, 1.0 equiv) was slowl y added at this t em perature. T he reaction m ixture was allowed to warm up to room tem perature over 2 hours. The inorganic precipitate was filtered off and the solvents were rem oved in vacuo. The residue was dissolved in pentane, washed with water and dried over Na2SO4. Rem oval of the solvent gives a product which was forwarded to the next step without purification. […]
(§5) Assays f or inh ib ition of tr yp s in activity (T PC K trea ted, f rom bovine pa ncreas; Sigm a-Aldrich T 1426) were based on cleavage of the fluorogenic peptide substrate Boc -QAR-AMC (Sigma- Aldrich B4153). which contains the fluorescent 7- am ino-4-m ethyl c oum arin (AMC) group. […] Cleavage of this bond results in release of AMC and i ncreased fluorescence. […]

α-chymotrypsin = target: T2, α-chymotrypsin (Bos taurus, UniProt P00766); assay: α-Chymotrypsin inhibition assay (N-Suc-LLVY-AMC cleavage); assay type: biochemical; details: bovine
T2 construct: purchased Sigma-Aldrich C3142; host or cells: bovine pancreas
Protocol: as §1, §2, §3, §4, §5

rPfSUB1 = rPfSUB1 (Plasmodium falciparum, UniProt Q8I0V0); assay: Progress curve kinetic analysis of rPfSUB1 inhibition
rPfSUB1, sequence (Q8I0V0 218-688): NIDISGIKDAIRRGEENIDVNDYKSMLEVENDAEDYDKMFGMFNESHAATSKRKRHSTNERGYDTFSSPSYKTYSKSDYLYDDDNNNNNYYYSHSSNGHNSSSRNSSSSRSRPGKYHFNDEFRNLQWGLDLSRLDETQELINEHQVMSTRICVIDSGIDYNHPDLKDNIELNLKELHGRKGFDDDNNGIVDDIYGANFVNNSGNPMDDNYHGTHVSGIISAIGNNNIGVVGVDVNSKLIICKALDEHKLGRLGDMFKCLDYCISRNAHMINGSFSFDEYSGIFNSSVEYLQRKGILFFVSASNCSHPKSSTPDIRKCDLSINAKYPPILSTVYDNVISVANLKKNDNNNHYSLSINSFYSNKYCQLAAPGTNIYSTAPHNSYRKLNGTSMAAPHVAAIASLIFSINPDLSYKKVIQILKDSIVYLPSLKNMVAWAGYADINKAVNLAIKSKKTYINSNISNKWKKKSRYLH
Source text: Boronic acids form reversible covalent bonds with serine and threonine proteases ([26]). Inhibition is generally time dependent, and the covalent nature of the binding can result in relatively long target occupancy times despite the reversibility of the bond. […] To analyze the kinetic characteristics of the interaction between 3j and rPfSUB1, we used progress curve analysis to continuously monitor rPfSUB1-mediated cleavage of a fluorogenic substrate in the presence of a range of concentrations of 3j. […] Under such conditions, fit of the progress curves by nonlinear regression to Eq. 1 (see Materials and Methods) allows determination of kobs, the pseudo first-order rate constant for onset of inhibition. The kobs is effectively a composite of the on and off rates, so least linear squares regression of the calculated kobs values against inhibitor concentration allows determination of values of the pseudo first-order dissociation rate constant koff and the second-order association rate constant kon for the inhibitor-rPfSUB1 interaction, based respectively on values from the y-intercept and slope.
Progress curves of SERA4st1F-6R12 cleavage by rPfSUB1 were acquired at seven concentrations of inhibitor compound 3j over a period of 35 min, during which fluorescence increases in the absence of inhibitor were linear. The obtained progress curves (four independent replicates) were fit using GraphPad Prism 8.0 software to the following time-dependent inhibition equation: [P] = Vs∗t + ((Vi−Vs)/kobs)∗(1−exp(−kobs∗t)).
In the equation, Vi is the initial velocity, Vs is the final steady-state velocity, and kobs reflects the observed pseudo first-order rate of inactivation. The obtained kobs values were plotted against compound concentration using a linear least squares fit. All statistical analysis was carried out using GraphPad Prism 8.

CC(=O)NC(C(=O)NC(C(=O)NCC(=O)NC(C)B(O)O)C(C)C)C1CCCC1 (stereo not shown) [3j]
effect on trypsin activity (trypsin; 10 µM): no detectable effect | IC50 (trypsin; bovine trypsin, Boc-QAR-AMC): > 10 µM | IC50 (α-chymotrypsin): > 200 µM | Ki (rPfSUB1): 0.001 µM | t1/2^off (bound half-life) (rPfSUB1; from koff): ~31 min and ~30 min | koff (rPfSUB1; read-out: koff, dissociation rate constant): 0.00037 s⁻¹ | kon (rPfSUB1; read-out: kon, second-order association rate constant): 360000 M⁻¹ s⁻¹

From paper PMC8157947, “Peptidic boronic acids are potent cell-permeable inhibitors of the malaria parasite egress serine protease SUB1” (Proceedings of the National Academy of Sciences of the …, 2021)
